The conditions of data set [1]: for Pyrazino-s-triazine derivative of 4α-hydroxy-5-methyl-THF (MeFox) (% abs.): 40° C./75% rh, major degradation product.
Experimental: The content of 5-methyl-(6S)-tetrahydrofolic acid remaining in the sample was measured by HPLC at periodic intervals. The content of 5-methyl-(6S)-tetrahydrofolic acid remaining was also compared to the initial value at the time of preparation (% rel.). Additionally the content of the pyrazino-s-triazine derivative of 4α-hydroxy-5-methyl-THF (MeFox), a major degradation product, was measured by HPLC at periodic intervals and disclosed as absolute values (% w/w).
Data set [2] is described as follows: Water content / TG-FTIR analysis.
Experimental: Thermogravimetric measurements were carried out with a Netzsch Thermo-Microbalance TG 209 coupled to a Bruker FTIR Spectrometer Vector 22 (sample pans with a pinhole, N2 atmosphere, heating rate 10 K/min).
How the values of data set [3] were obtained: DVS measurements are typically performed with an SPS11-100n “Sorptions Prüfsystem” from ProUmid (formerly “Projekt Messtechnik”), August-Nagel-Str. 23, 89079 Ulm (Germany).
DVS measurements were performed with an SPS11-100n “Sorptions Prüfsystem” from ProUmid (formerly “Projekt Messtechnik”), August-Nagel-Str. 23, 89079 Ulm (Germany).

The conditions of data set [4]: 25° C./60% rh; for Pyrazino-s-triazine derivative of 4α-hydroxy-5-methyl-THF (MeFox) (% w/w): major degradation product.
Experimental: Additionally the content of the pyrazino-s-triazine derivative of 4α-hydroxy-5-methyl-THF (MeFox), a major degradation product, was measured by HPLC at periodic intervals and disclosed as absolute values (% w/w).

Where two headings read alike, the source gives them in different places.

On to `CN1c2c([nH]c(N)nc2=O)NC[C@@H]1CNc1ccc(C(=O)N[C@@H](CCC(=O)[O-])C(=O)[O-])cc1.[Ca+2]`, for which the “Pyrazino-s-triazine derivative of 4α-hydroxy-5-methyl-THF (MeFox) (% abs.)” value in data set [1] (0 months) worked out at 0.20 % abs; in data set [1] (3 months), 0.72 % abs; in data set [1] (6 months) it was 0.80 % abs; in data set [1] (9 months), 0.68 % abs. For the same molecule, the “content of MeFox” value in data set [1] (already before reaching 9 months (Table 7)) and in data set [4] (already before reaching 9 months) was “over 0.6%” in each case. Moreover, the “water content (generally)” value in data set [2] (general statement) is on record as “more than 10%”. For the same molecule, the water content in data set [2] (measured on a sample) was 12.4%. For the same molecule, the “change of water content” value in data set [3] (relative humidity from 20 to 75% r.h.) is given as “more than 6%”. Also, the “change of water content (DVS)” value in data set [3] (within the tested range, 0 to 75% r.h.) was “more than 6%”. Also, the “Pyrazino-s-triazine derivative of 4α-hydroxy-5-methyl-THF (MeFox) (% w/w)” value came to 0.20 % w/w in data set [4] (0 months), 0.59 % w/w in data set [4] (3 months), 0.71 % w/w in data set [4] (6 months) and 0.68 % w/w in data set [4] (9 months).
